The values that follow come from US20240101548A1, “HYDROXAMATE COMPOUND, PREPARATION METHOD THEREFOR AND APPLICATION THEREOF” (SHENZHEN CHIPSCREEN BIOSCIENCES CO., LTD., priority 2020, published 2024).

Structures are written as SMILES. Like-named read-outs stand apart in the source and are kept apart here.

Holding throughout (format): cell-based, human
The subject of assay [1] is IL-10-induced JAK1/TYK2 signal pathway. The assay is described as follows: IL-10-induced JAK1/TYK2 signal pathway STAT3-Luc reporter gene assay in U2OS cells. The following applies: Homo sapiens, U2OS cells, STAT3-Luc reporter, IL-10 10 ng/mL, read-out: Half inhibition dose (IC50) on IL-10-induced JAK1/TYK2 signal pathway. The method, boiled down: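 Luciferase read-out (560 nm) corrected by GFP signal (Ex485/Em520) gives IL-10 pathway activity, and IC50 is derived from inhibition rates. Cells were U2OS transfected with IL-10R1 plus STAT3-Luc reporter, pretreated 6 h with 0.1–300 nM compound, then stimulated 24 h with IL-10 at 10 ng/mL.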

For assay [2], the system named is IL-2-induced JAK1/JAK3 signal pathway. The assay is described as follows: IL-2-induced proliferation of KHYG-1 cells (JAK1/JAK3 signal). The following applies: Homo sapiens, read-out: Inhibition activity IC50 on IL-2-induced JAK1/JAK3 signal pathway. The method, boiled down: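 Controls were wells lacking both compound and cytokine (0%) and compound-free IL-2 wells (100%). C50 was calculated from inhibition rates across doses.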

Assay [3] has as its system EPO-induced JAK2 signal pathway. Kind of assay: EPO-induced proliferation of UT-7 cells (JAK2 signal). The following applies: Homo sapiens, UT7; UT-7 cell proliferation, EPO 10 ng/mL, 72 hours; read-out: Inhibition activity IC50 on EPO-induced JAK2 signal pathway. The method in brief: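 […] was derived from inhibition rates across doses, scaled between wells lacking compound and cytokine (0) and EPO without compound (100), using alamarBlue fluorescence at Ex530/Em590. Compound (final 0-10000 nM) and 10 ng/mL EPO were given to UT-7 cells at 15000 per well for 72 h at 37° C.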

Setting [4] is: KHYG-1 cell proliferation, IL-2 10 ng/mL, 72 hours.

Turning to `CCONC(=O)c1cnc(Nc2ccn(C)n2)cc1Nc1ccc(C2CC2)cc1N(C)S(C)(=O)=O` [Example 160, 4-((4-cyclopropyl-2-(N-methylmethanesulfonamido)phenyl)amino)-N-ethoxy-6-((1-methyl-1H-pyrazol-3-yl)amino)nicotinamide], the figures for the IC50 in assay [1] (U2OS), in assay [2] (setting [4]) and in assay [3] were 0.000442 µM, above 10 µM and above 10 µM, respectively.

`C#Cc1ccc(Nc2cc(Nc3ccccn3)ncc2C(=O)NOCC)c(N(C)S(C)(=O)=O)c1` [Example 162, N-ethoxy-4-((4-ethynyl-2-(N-methylmethanesulfonamido)phenyl)amino)-6-(pyridin-2-ylamino)nicotinamide]: the IC50 in assay [1] (U2OS) is 0.000438 µM; in assay [2] (setting [4]) it was above 10 µM; in assay [3], above 10 µM.

As for `CCONC(=O)c1cnc(NC(=O)C2CC2)cc1Nc1cccc(-c2ncn(C)n2)c1OC` [Example 166, 6-(cyclopropylcarboxamido)-N-ethoxy-4-((2-methoxy-3-(1-methyl-1H-1,2,4-triazol-3-yl)phenyl)amino)nicotinamide], the IC50 in assay [1] (U2OS) is 0.00151 µM; in assay [2] (setting [4]), above 10 µM; in assay [3], above 10 µM.

As to `CCONC(=O)c1cnc(Nc2cnccn2)cc1Nc1cc(F)c(C2CC2)cc1N(C)S(C)(=O)=O` [Example 167, 4-((4-cyclopropyl-5-fluoro-2-(N-methylmethanesulfonamido)phenyl)amino)-N-ethoxy-6-(pyrazin-2-ylamino)nicotinamide], the values for the IC50 in assay [1] (U2OS), in assay [2] (setting [4]) and in assay [3] were 0.00151 µM, above 10 µM and above 10 µM, respectively.

Regarding `CCONC(=O)c1cnc(Nc2nc(C)cs2)cc1Nc1cc(F)c(C2CC2)cc1N(C)S(C)(=O)=O` [Example 170, 4-((4-cyclopropyl-5-fluoro-2-(N-methylmethanesulfonamido)phenyl)amino)-N-ethoxy-6-((4-methylthiazol-2-yl)amino)nicotinamide], the IC50 is 0.0015 µM in assay [1] (U2OS), above 10 µM in assay [2] (setting [4]) and above 10 µM in assay [3].

On to `CCONC(=O)c1cnc(Nc2ccn(C)n2)cc1Nc1cc(F)c(C2CC2)cc1N(C)S(C)(=O)=O` [Example 171, 4-((4-cyclopropyl-5-fluoro-2-(N-methylmethanesulfonamido)phenyl)amino)-N-ethoxy-6-((1-methyl-1H-pyrazol-3-yl)amino)nicotinamide], for which the IC50 was 0.00154 µM in assay [1] (U2OS), above 10 µM in assay [2] (setting [4]) and above 10 µM in assay [3].

Consider `CCONC(=O)c1cnc(Nc2cc(C)nc(C)n2)cc1Nc1ccccc1N(C)S(=O)(=O)C1CC1` [Example 173, 6-((2,6-dimethylpyrimidin-4-yl)amino)-N-ethoxy-4-((2-(N-methylcyclopropylsulfonamido)phenyl)amino)nicotinamide], for which the IC50 was 0.000424 µM in assay [1]; above 10 µM in assay [2] (KHYG-1, 72 h); above 10 µM in assay [3].

For the molecule `CCONC(=O)c1cnc(Nc2cc(C)nc(C)n2)cc1Nc1ccc(OC)cc1N(C)S(=O)(=O)C1CC1` [Example 174, 6-((2,6-dimethylpyrimidin-4-yl)amino)-N-ethoxy-4-((4-methoxy-2-(N-methylcyclopropylsulfonamido)phenyl)amino)nicotinamide], the IC50 in assay [1] (U2OS) was 0.000784 µM; in assay [2] (setting [4]) it was above 10 µM; in assay [3] it was above 10 µM.

`CCONC(=O)c1cnc(Nc2cc(C)nc(C)n2)cc1Nc1ccc(C)cc1N(C)S(=O)(=O)C1CC1` [Example 175]: the IC50 in assay [1] (U2OS) was 0.000839 µM; in assay [2] (setting [4]), above 10 µM; in assay [3], above 10 µM.

`CCONC(=O)c1cnc(Nc2ccc(C)nn2)cc1Nc1cc(F)c(C2CC2)cc1N(C)S(C)(=O)=O` [Example 176, 4-((4-cyclopropyl-5-fluoro-2-(N-methylmethanesulfonamido)phenyl)amino)-N-ethoxy-6-((6-methylpyridazin-3-yl)amino)nicotinamide]: the IC50 was 0.00232 µM in assay [1] (U2OS), above 10 µM in assay [2] (setting [4]) and above 10 µM in assay [3].

For the molecule `CCONC(=O)c1cnc(Nc2cc(C)nc(C)n2)cc1Nc1ccc(C#N)cc1N(C)S(C)(=O)=O` [Example 177], the IC50 in assay [1] (U2OS) was 0.0016 µM; in assay [2] (setting [4]), above 10 µM; in assay [3], above 10 µM.

`CCONC(=O)c1cnc(Nc2cc(C)nc(C)n2)cc1Nc1ccc(OC(C)C)cc1N(C)S(C)(=O)=O` [Example 178, 6-((2,6-dimethylpyrimidin-4-yl)amino)-N-ethoxy-4-((4-isopropoxy-2-(N-methylmethanesulfonamido)phenyl)amino)nicotinamide]: the IC50 is 0.00128 µM in assay [1] (U2OS), above 10 µM in assay [2] (setting [4]) and above 10 µM in assay [3].

Regarding `CCONC(=O)c1cnc(Nc2ccnc(OC)n2)cc1Nc1ccc(C2CC2)cc1N(C)S(C)(=O)=O` [Example 179, 4-((4-cyclopropyl-2-(N-methylmethanesulfonamido)phenyl)amino)-N-ethoxy-6-((2-methoxypyrimidin-4-yl)amino)nicotinamide], the IC50 in assay [1] (U2OS) is 0.00131 µM; in assay [2] (setting [4]), above 10 µM; in assay [3] it was above 10 µM.

For the molecule `CCONC(=O)c1cnc(Nc2cc(C)nc(C)n2)cc1Nc1ccc(CC)cc1N(C)S(C)(=O)=O` [Example 180], the values for the IC50 in assay [1], in assay [2] (setting [4]) and in assay [3] were 0.00113 µM, above 10 µM and above 10 µM, respectively.

As to `C#Cc1cc(N(C)S(C)(=O)=O)c(Nc2cc(Nc3cc(C)nc(C)n3)ncc2C(=O)NOCC)cc1F` [Example 182], the IC50 in assay [1] (U2OS) is 0.00159 µM; in assay [2] (setting [4]) it was above 10 µM; in assay [3], above 10 µM.

In the case of `CCONC(=O)c1cnc(Nc2cc(C)nc(C)n2)cc1Nc1ccc(F)cc1N(C)S(=O)(=O)C1CC1` [Example 183], the IC50 is 0.000796 µM in assay [1] (U2OS), above 10 µM in assay [2] (setting [4]) and above 10 µM in assay [3].

With `CCONC(=O)c1cnc(Nc2cc(C)nc(C)n2)cc1Nc1ccc(C2CC2)cc1N(C)S(=O)(=O)CC` [Example 185], the IC50 in assay [1] (U2OS) is 0.000821 µM; in assay [2] (setting [4]), above 10 µM; in assay [3], above 10 µM.

Regarding `CCONC(=O)c1cnc(Nc2cc(C)nc(C)n2)cc1Nc1ccc(Cl)cc1N(C)S(=O)(=O)CC` [Example 187, 4-((4-chloro-2-(N-methylethylsulfonamido)phenyl)amino)-6-((2,6-dimethylpyrimidin-4-yl)amino)-N-ethoxynicotinamide], the values for the IC50 in assay [1] (U2OS), in assay [2] (setting [4]) and in assay [3] were 0.000906 µM, above 10 µM and above 10 µM, respectively.

Take `CCONC(=O)c1cnc(Nc2ccnc(OC)n2)cc1Nc1cc(F)c(C2CC2)cc1N(C)S(C)(=O)=O` [Example 188, 4-((4-cyclopropyl-5-fluoro-2-(N-methylmethanesulfonamido)phenyl)amino)-N-ethoxy-6-((2-methoxypyrimidin-4-yl)amino)nicotinamide]: the IC50 in assay [1] (U2OS) was 0.00127 µM; in assay [2] (setting [4]), above 10 µM; in assay [3] it was above 10 µM.

For the molecule `CCONC(=O)c1cnc(Nc2cc(C)nc(C)n2)cc1Nc1ccc(C2CC2)cc1N(C)S(=O)(=O)C1CC1` [Example 189], the IC50 in assay [1] (U2OS) is 0.000825 µM; in assay [2] (setting [4]), above 10 µM; in assay [3], above 10 µM.

Turning to `CCONC(=O)c1cnc(Nc2ccncn2)cc1Nc1ccc(C2CC2)cc1N(C)S(=O)(=O)C1CC1` [Example 190, 4-((4-cyclopropyl-2-(N-methylcyclopropylsulfonamido)phenyl)amino)-N-ethoxy-6-(pyrimidin-4-ylamino)nicotinamide], the IC50 was 0.00273 µM in assay [1] (U2OS), above 10 µM in assay [2] (setting [4]) and above 10 µM in assay [3].

Take `CCONC(=O)c1cnc(Nc2cc(C)nc(C)n2)cc1Nc1cc(F)c(C)cc1N(C)S(C)(=O)=O` [Example 191, 6-((2,6-dimethylpyrimidin-4-yl)amino)-N-ethoxy-4-((5-fluoro-4-methyl-2-(N-methylmethanesulfonamido)phenyl)amino)nicotinamide]: the results for the IC50 in assay [1] (U2OS), in assay [2] (setting [4]) and in assay [3] were 0.000653 µM, above 10 µM and above 10 µM, respectively.

For the molecule `CCONC(=O)c1cnc(Nc2cc(C)nc(C)n2)cc1Nc1ccc(C)c(F)c1N(C)S(C)(=O)=O` [Example 197], the values for the IC50 in assay [1] (U2OS), in assay [2] (setting [4]) and in assay [3] were 0.000731 µM, above 10 µM and above 10 µM, respectively.

With `CCONC(=O)c1cnc(Nc2cc(C)nc(C)n2)cc1Nc1ccc(C)cc1N(C)S(=O)(=O)CC` [Example 203, 6-((2,6-dimethylpyrimidin-4-yl)amino)-N-ethoxy-4-((4-methyl-2-(N-methylethylsulfonamido)phenyl)amino)nicotinamide], the IC50 was 0.000383 µM in assay [1] (U2OS), above 10 µM in assay [2] (setting [4]) and above 10 µM in assay [3].

For `CCONC(=O)c1cnc(Nc2cc(C)nc(C)n2)cc1Nc1ccc(-c2ccnn2C)cc1OC` [Example 207], the values for the IC50 in assay [1] (U2OS), in assay [2] (setting [4]) and in assay [3] were 0.00108 µM, above 10 µM and above 10 µM, respectively.
